# In patent publication US11053204B2, “Pyrimidinyloxy benzene derivatives as herbicides” (FMC Corporation, priority 2015, dated 2021):
# Key:
# Type in all cases: in vivo
# [1] = system: giant foxtail (Setaria faberii); assay: Test A preemergence, visual injury rating; conditions: for Plant response rating, Foxtail, Giant: 31 g ai/ha, 0 to 100 scale, 0 no effect, 100 complete control
# Summary of the method: (§1)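 Compounds in non-phytotoxic solvent with surfactant applied as soil spray preemergence, or postemergence to plants 2-10 cm at one- to two-leaf stage, in loam/sand. After approximately 10 days in greenhouse, injury rated visually versus untreated controls, 0 (no effect) to 100 (complete control).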
# kochia (Kochia scoparia) [2] = assay: Test A preemergence, visual injury rating; conditions: for Plant response rating, Kochia: 31 g ai/ha, 0 to 100 scale, 0 no effect, 100 complete control
# Summary of the method: as §1
# [3] = system: ragweed (common ragweed, Ambrosia elatior); assay: Test A preemergence, visual injury rating; conditions: for Plant response rating, Ragweed: 31 g ai/ha, 0 to 100 scale, 0 no effect, 100 complete control
# Summary of the method: as §1
# [4] = system: Italian ryegrass (Lolium multiflorum); assay: Test A preemergence, visual injury rating; conditions: for Plant response rating, Ryegrass, Italian: 31 g ai/ha, 0 to 100 scale, 0 no effect, 100 complete control
# Summary of the method: as §1
# [5] = system: pigweed (Amaranthus retroflexus); assay: Test A preemergence, visual injury rating; conditions: for Plant response rating, Pigweed: 31 g ai/ha, 0 to 100 scale, 0 no effect, 100 complete control
# Summary of the method: as §1
# [6] = system: barnyardgrass (Echinochloa crus-galli); assay: Test A preemergence, visual injury rating; conditions: for Plant response rating, Barnyardgrass: 31 g ai/ha, 0 to 100 scale, 0 no effect, 100 complete control
# Summary of the method: as §1
# [7] = system: ducksalad (Heteranthera limosa); assay: Test B flooded paddy test, plant response rating; conditions: 250 g ai/ha, Flood, scale of 0 to 100 where 0 is no effect and 100 is complete control, 13 to 15 days
# Summary of the method: (§2)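 Greenhouse pots flooded to 3 cm above soil at time of treatment received compound via the water, which stayed at that level.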
# [8] = system: barnyardgrass (Echinochloa crus-galli); assay: Test B flooded paddy test, plant response rating; conditions: 250 g ai/ha, Flood, scale of 0 to 100 where 0 is no effect and 100 is complete control, 13 to 15 days
# Summary of the method: as §2
# [9] = system: sedge, umbrella (small-flower umbrella sedge, Cyperus difformis); assay: Test B flooded paddy test, plant response rating; conditions: 250 g ai/ha, Flood, scale of 0 to 100 where 0 is no effect and 100 is complete control, 13 to 15 days
# Summary of the method: as §2
# rice (Oryza sativa) = assay: Test B flooded paddy test, plant response rating; conditions: 250 g ai/ha, Flood, scale of 0 to 100 where 0 is no effect and 100 is complete control, 13 to 15 days
# Summary of the method: as §2
# [10] = system: giant foxtail (Setaria faberii); assay: Test A postemergence, visual injury rating; conditions: 0 is no effect, 100 is complete control; for Foxtail, Giant plant response rating: 0 to 100 scale, approximately 10 days
# Summary of the method: as §1
# kochia (Kochia scoparia) [11] = assay: Test A postemergence, visual injury rating; conditions: 0 is no effect, 100 is complete control; for Kochia plant response rating: 0 to 100 scale, approximately 10 days
# Summary of the method: as §1
# [12] = system: ragweed (common ragweed, Ambrosia elatior); assay: Test A postemergence, visual injury rating; conditions: 0 is no effect, 100 is complete control; for Ragweed plant response rating: 0 to 100 scale, approximately 10 days
# Summary of the method: as §1
# [13] = system: Italian ryegrass (Lolium multiflorum); assay: Test A postemergence, visual injury rating; conditions: 0 is no effect, 100 is complete control; for Ryegrass, Italian plant response rating: 0 to 100 scale, approximately 10 days
# Summary of the method: as §1
# [14] = system: galium (catchweed bedstraw, Galium aparine); assay: Test A postemergence, visual injury rating; conditions: 0 is no effect, 100 is complete control; for Galium plant response rating: 0 to 100 scale, approximately 10 days
# Summary of the method: as §1
# [15] = system: pigweed (Amaranthus retroflexus); assay: Test A postemergence, visual injury rating; conditions: 0 is no effect, 100 is complete control; for Pigweed plant response rating: 0 to 100 scale, approximately 10 days
# Summary of the method: as §1
# [16] = system: wheat (Triticum aestivum); assay: Test A postemergence, visual injury rating; conditions: 0 is no effect, 100 is complete control; for Wheat plant response rating: 0 to 100 scale, approximately 10 days
# Summary of the method: as §1
# [17] = system: barnyardgrass (Echinochloa crus-galli); assay: Test A postemergence, visual injury rating; conditions: 0 is no effect, 100 is complete control; for Barnyardgrass plant response rating: 0 to 100 scale, approximately 10 days
# Summary of the method: as §1
# corn (Zea mays) = assay: Test A postemergence, visual injury rating; conditions: 0 is no effect, 100 is complete control; for Corn plant response rating: 0 to 100 scale, approximately 10 days
# Summary of the method: as §1
# [18] = system: blackgrass (Alopecurus myosuroides); assay: Test A postemergence, visual injury rating; conditions: 0 is no effect, 100 is complete control; for Blackgrass plant response rating: 0 to 100 scale, approximately 10 days
# Summary of the method: as §1
# [19] = 125 g ai/ha, 0 to 100 scale (0 no effect, 100 complete control)
compound,measurement,setting,value
Cc1ccc(Oc2ncc(Cl)cn2)c(C(=O)OCCC(F)(F)F)c1 [Compound 54],"Plant response rating, Foxtail, Giant",[1],0
same,pest or weed control at 125 g/ha,"[1]; Setaria faberi, pre-emergence, 240 h, 125 g ai/ha, 0 to 100 scale (0 no effect, 100 complete control), read-out: Foxtail, Giant plant response rating",0%
same,"Plant response rating, Kochia",kochia (Kochia scoparia) [2],0
same,pest or weed control at 125 g/ha,"kochia (Kochia scoparia) [2]; Bassia scoparia, pre-emergence, 240 h, 125 g ai/ha, 0 to 100 scale (0 no effect, 100 complete control), read-out: Kochia plant response rating",0%
same,"Plant response rating, Ragweed",[3],0
same,pest or weed control at 125 g/ha,"[3]; Ambrosia artemisiifolia, pre-emergence, 240 h, 125 g ai/ha, 0 to 100 scale (0 no effect, 100 complete control), read-out: Ragweed plant response rating",0%
same,"Plant response rating, Ryegrass, Italian",[4],0
same,pest or weed control at 125 g/ha,"[4]; Lolium multiflorum, pre-emergence, 240 h, 125 g ai/ha, 0 to 100 scale (0 no effect, 100 complete control), read-out: Ryegrass, Italian plant response rating",0%
same,"Plant response rating, Pigweed",[5],0
same,pest or weed control at 125 g/ha,"[5]; Amaranthus retroflexus, pre-emergence, 240 h, 125 g ai/ha, 0 to 100 scale (0 no effect, 100 complete control), read-out: Pigweed plant response rating",0%
same,"Plant response rating, Barnyardgrass",[6],0
same,pest or weed control at 125 g/ha,"[6]; Echinochloa crus-galli, pre-emergence, 240 h, 125 g ai/ha, 0 to 100 scale (0 no effect, 100 complete control), read-out: Barnyardgrass plant response rating",0%
same,pest or weed control at 250 g/ha,"[7]; Heteranthera limosa, 312 h",0%
same,pest or weed control at 250 g/ha,"[8]; Echinochloa crus-galli, 312 h",0%
same,pest or weed control at 250 g/ha,"[9]; Cyperus difformis, 312 h",0%
same,plant injury at 250 g/ha,"rice (Oryza sativa); Oryza sativa, 312 h",0%
same,"Foxtail, Giant plant response rating",[10]; 31 g ai/ha,0
same,pest or weed control at 125 g/ha,"[10]; Setaria faberi, post-emergence, 240 h, 125 g ai/ha, read-out: Foxtail, Giant plant response rating (0 to 100 scale)",0%
same,Kochia plant response rating,kochia (Kochia scoparia) [11]; 31 g ai/ha,0
same,pest or weed control at 125 g/ha,"kochia (Kochia scoparia) [11]; Bassia scoparia, post-emergence, 240 h, 125 g ai/ha, read-out: Kochia plant response rating (0 to 100 scale)",0%
same,Ragweed plant response rating,[12]; 31 g ai/ha,0
same,pest or weed control at 125 g/ha,"[12]; Ambrosia artemisiifolia, post-emergence, 240 h, 125 g ai/ha, read-out: Ragweed plant response rating (0 to 100 scale)",0%
same,"Ryegrass, Italian plant response rating",[13]; 31 g ai/ha,0
same,pest or weed control at 125 g/ha,"[13]; Lolium multiflorum, post-emergence, 240 h, 125 g ai/ha, read-out: Ryegrass, Italian plant response rating (0 to 100 scale)",0%
same,Galium plant response rating,[14]; 31 g ai/ha,0
same,pest or weed control at 125 g/ha,"[14]; Galium, post-emergence, 240 h, 125 g ai/ha, read-out: Galium plant response rating (0 to 100 scale)",0%
same,Pigweed plant response rating,[15]; 31 g ai/ha,0
same,pest or weed control at 125 g/ha,"[15]; Amaranthus retroflexus, post-emergence, 240 h, 125 g ai/ha, read-out: Pigweed plant response rating (0 to 100 scale)",0%
same,Wheat plant response rating,[16]; 31 g ai/ha,0
same,plant injury at 125 g/ha,"[16]; Triticum aestivum, post-emergence, 240 h, 125 g ai/ha, read-out: Wheat plant response rating (0 to 100 scale)",0%
same,Barnyardgrass plant response rating,[17]; 31 g ai/ha,0
same,pest or weed control at 125 g/ha,"[17]; Echinochloa crus-galli, post-emergence, 240 h, 125 g ai/ha, read-out: Barnyardgrass plant response rating (0 to 100 scale)",0%
same,Corn plant response rating,corn (Zea mays); 31 g ai/ha,0
same,plant injury at 125 g/ha,"corn (Zea mays); Zea mays, post-emergence, 240 h, 125 g ai/ha, read-out: Corn plant response rating (0 to 100 scale)",0%
same,Blackgrass plant response rating,[18]; 31 g ai/ha,0
same,pest or weed control at 125 g/ha,"[18]; Alopecurus myosuroides, post-emergence, 240 h, 125 g ai/ha, read-out: Blackgrass plant response rating (0 to 100 scale)",0%
CCCCc1c(C#N)cccc1Oc1ncc(Cl)cn1 [Compound 86],"Plant response rating, Foxtail, Giant",[1],0
same,"Foxtail, Giant plant response rating",[1]; [19],50
same,"Plant response rating, Kochia",kochia (Kochia scoparia) [2],10
same,Kochia plant response rating,kochia (Kochia scoparia) [2]; [19],100
same,"Plant response rating, Ragweed",[3],0
same,Ragweed plant response rating,[3]; [19],0
same,"Plant response rating, Ryegrass, Italian",[4],0
same,"Ryegrass, Italian plant response rating",[4]; [19],20
same,"Plant response rating, Pigweed",[5],20
same,Pigweed plant response rating,[5]; [19],100
same,"Plant response rating, Barnyardgrass",[6],0
same,Barnyardgrass plant response rating,[6]; [19],90
same,"Plant response rating, Ducksalad",[7],100
same,"Plant response rating, Barnyardgrass",[8],40
same,"Plant response rating, Sedge, Umbrella",[9],100
same,"Plant response rating, Rice",rice (Oryza sativa),20
same,"Foxtail, Giant plant response rating",[10]; 31 g ai/ha,10
same,"Foxtail, Giant plant response rating",[10]; 125 g ai/ha,30
same,Kochia plant response rating,kochia (Kochia scoparia) [11]; 31 g ai/ha,90
same,Kochia plant response rating,kochia (Kochia scoparia) [11]; 125 g ai/ha,100
same,Ragweed plant response rating,[12]; 31 g ai/ha,0
same,Ragweed plant response rating,[12]; 125 g ai/ha,0
same,"Ryegrass, Italian plant response rating",[13]; 31 g ai/ha,0
same,"Ryegrass, Italian plant response rating",[13]; 125 g ai/ha,20
same,Galium plant response rating,[14]; 31 g ai/ha,30
same,Galium plant response rating,[14]; 125 g ai/ha,70
same,Pigweed plant response rating,[15]; 31 g ai/ha,30
same,Pigweed plant response rating,[15]; 125 g ai/ha,40
same,Wheat plant response rating,[16]; 31 g ai/ha,30
same,Wheat plant response rating,[16]; 125 g ai/ha,40
same,Barnyardgrass plant response rating,[17]; 31 g ai/ha,20
same,Barnyardgrass plant response rating,[17]; 125 g ai/ha,40
same,Corn plant response rating,corn (Zea mays); 31 g ai/ha,30
same,Corn plant response rating,corn (Zea mays); 125 g ai/ha,30
same,Blackgrass plant response rating,[18]; 31 g ai/ha,0
same,Blackgrass plant response rating,[18]; 125 g ai/ha,20
